target: T1, ATR kinase (full-length ATR) (Homo sapiens, UniProt Q13535); experiment: ATR Inhibition Assay (radioactive-phosphate incorporation); format: biochemical; conditions: Ki(app); 5 nM full-length ATR, 10 μM ATP, 800 μM target peptide, 25° C.; class symbols; read-out: ATR Inhibition Ki
T1 construct: Assays were carried out at 25° C. in the presence of 5 nM full-length ATR
Experimental: Compounds were screened for their ability to inhibit ATR kinase using a radioactive-phosphate incorporation assay. Assays were carried out in a mixture of 50 mM Tris/HCl (pH 7.5), 10 mM MgCl2 and 1 mM DTT. Final substrate concentrations were 10 μM [y-33P]ATP (3mCi 33P ATP/mmol ATP, Perkin Elmer) and 800 μM target peptide ([…]).
Assays were carried out at 25° C. in the presence of 5 nM full-length ATR. An assay stock buffer solution was prepared containing all of the reagents listed above, with the exception of ATP and the test compound of interest. […] The plate was pre-incubated for 10 minutes at 25° C. and the reaction initiated by addition of 15 μL [y-33P]ATP (final concentration 10 μM).
The reaction was stopped after […] by the addition of 30 μL 0.1M phosphoric acid containing 2 mM ATP. A multiscreen phosphocellulose filter 96-well plate (Millipore, Cat no. MAPHN0B50) was pretreated with 100 μL 0.2M phosphoric acid prior to the addition of 45 μL of the stopped assay mixture. The plate was washed with 5×200 μL 0.2M phosphoric acid.
After removing mean background values for all of the data points, Ki(app) data were calculated from non-linear regression analysis of the initial rate data using the Prism software package (GraphPad Prism version 3.0cx for Macintosh, GraphPad Software, San Diego Calif., USA).

T1 sequence (Q13535 whole entry): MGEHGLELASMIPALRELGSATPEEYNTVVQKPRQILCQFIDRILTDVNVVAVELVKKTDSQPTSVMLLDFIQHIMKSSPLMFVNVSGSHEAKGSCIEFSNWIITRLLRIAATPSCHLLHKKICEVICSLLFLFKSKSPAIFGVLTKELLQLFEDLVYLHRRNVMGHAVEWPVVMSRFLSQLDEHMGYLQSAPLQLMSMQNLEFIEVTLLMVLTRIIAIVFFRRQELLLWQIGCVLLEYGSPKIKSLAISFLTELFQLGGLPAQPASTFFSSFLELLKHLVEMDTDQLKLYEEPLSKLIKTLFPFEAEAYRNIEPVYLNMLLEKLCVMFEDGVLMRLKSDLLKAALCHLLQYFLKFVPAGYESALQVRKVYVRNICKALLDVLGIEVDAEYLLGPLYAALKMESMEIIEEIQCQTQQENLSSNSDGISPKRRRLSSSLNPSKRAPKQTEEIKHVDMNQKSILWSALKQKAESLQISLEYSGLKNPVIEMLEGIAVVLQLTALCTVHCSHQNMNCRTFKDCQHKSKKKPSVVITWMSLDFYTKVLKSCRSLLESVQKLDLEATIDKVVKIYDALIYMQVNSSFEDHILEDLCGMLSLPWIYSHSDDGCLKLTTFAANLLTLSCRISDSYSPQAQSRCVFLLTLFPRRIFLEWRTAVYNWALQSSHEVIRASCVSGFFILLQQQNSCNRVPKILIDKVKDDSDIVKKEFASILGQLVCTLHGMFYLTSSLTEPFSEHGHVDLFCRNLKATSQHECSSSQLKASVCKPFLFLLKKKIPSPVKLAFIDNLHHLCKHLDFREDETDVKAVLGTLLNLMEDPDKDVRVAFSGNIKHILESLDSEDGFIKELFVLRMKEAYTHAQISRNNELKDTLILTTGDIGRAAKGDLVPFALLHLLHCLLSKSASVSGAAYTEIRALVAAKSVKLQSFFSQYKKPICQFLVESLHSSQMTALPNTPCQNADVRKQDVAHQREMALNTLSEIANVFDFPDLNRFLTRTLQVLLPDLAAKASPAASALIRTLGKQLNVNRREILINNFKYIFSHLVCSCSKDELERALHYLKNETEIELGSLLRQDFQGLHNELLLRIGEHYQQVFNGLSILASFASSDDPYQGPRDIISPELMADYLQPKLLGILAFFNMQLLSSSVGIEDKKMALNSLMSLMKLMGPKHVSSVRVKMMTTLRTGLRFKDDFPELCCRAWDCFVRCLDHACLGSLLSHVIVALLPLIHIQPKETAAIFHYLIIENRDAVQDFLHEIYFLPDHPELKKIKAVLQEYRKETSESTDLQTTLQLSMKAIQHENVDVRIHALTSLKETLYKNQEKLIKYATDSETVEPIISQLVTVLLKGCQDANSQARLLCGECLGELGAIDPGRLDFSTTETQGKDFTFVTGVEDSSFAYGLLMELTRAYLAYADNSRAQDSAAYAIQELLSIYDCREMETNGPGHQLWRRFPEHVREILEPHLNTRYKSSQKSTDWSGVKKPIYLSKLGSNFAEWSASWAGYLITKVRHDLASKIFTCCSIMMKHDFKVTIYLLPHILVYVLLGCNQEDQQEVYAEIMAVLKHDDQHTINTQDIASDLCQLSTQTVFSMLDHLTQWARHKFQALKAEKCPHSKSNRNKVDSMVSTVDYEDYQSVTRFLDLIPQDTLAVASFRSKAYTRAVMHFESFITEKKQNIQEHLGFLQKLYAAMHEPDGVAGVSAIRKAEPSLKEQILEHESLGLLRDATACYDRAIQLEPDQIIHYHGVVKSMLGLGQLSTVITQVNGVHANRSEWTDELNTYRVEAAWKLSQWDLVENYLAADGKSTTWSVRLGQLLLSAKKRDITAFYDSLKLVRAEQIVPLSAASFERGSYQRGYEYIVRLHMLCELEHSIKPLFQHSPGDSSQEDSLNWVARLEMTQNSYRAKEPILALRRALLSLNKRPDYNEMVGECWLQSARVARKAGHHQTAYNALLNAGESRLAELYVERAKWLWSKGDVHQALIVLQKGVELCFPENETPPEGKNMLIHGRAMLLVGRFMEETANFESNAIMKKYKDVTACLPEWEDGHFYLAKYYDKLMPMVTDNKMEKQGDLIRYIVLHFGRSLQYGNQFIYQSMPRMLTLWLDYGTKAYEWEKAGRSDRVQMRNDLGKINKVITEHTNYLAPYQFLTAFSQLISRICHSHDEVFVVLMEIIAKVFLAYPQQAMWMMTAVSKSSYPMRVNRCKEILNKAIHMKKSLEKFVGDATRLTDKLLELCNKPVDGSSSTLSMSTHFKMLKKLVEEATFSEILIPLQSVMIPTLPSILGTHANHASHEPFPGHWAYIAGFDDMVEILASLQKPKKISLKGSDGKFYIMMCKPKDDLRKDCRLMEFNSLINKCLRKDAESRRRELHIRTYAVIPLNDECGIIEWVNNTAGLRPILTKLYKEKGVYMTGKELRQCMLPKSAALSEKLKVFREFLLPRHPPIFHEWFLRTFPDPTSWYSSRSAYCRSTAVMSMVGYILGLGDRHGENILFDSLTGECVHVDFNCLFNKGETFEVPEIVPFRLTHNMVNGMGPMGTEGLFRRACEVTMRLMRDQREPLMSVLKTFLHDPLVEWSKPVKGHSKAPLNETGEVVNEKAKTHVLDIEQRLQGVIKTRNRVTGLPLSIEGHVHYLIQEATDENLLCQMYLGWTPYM

SMILES	Ki
CC(O)c1cccc(NC(=O)c2c[nH]c3ncc(-c4ccc(S(=O)(=O)C(C)C)cc4)nc23)c1 (stereo not shown) [Compound I-34, N-[3-(1-hydroxyethyl)phenyl]-2-(4-isopropylsulfonylphenyl)-5H-pyrrolo[2,3-b]pyrazine-7-carboxamide]	100 to 500 nM
CC(C)S(=O)(=O)c1ccc(-c2cnc3[nH]cc(C(=O)N[C@@H](C)c4ccccc4)c3n2)cc1 [Compound I-35, 2-(4-isopropylsulfonylphenyl)-N-[(1S)-1-phenylethyl]-5H-pyrrolo[2,3-b]pyrazine-7-carboxamide]	500 to 5000 nM
CC(C)S(=O)(=O)c1ccc(-c2cnc3[nH]cc(C(=O)NCc4ccc(N5CCOCC5)cc4)c3n2)cc1 [Compound I-38, 2-(4-isopropylsulfonylphenyl)-N-[(4-morpholinophenyl)methyl]-5H-pyrrolo[2,3-b]pyrazine-7-carboxamide]	500 to 5000 nM
CC(C)S(=O)(=O)c1ccc(-c2cnc3[nH]cc(C(=O)N4CCCC4CO)c3n2)cc1 (stereo not shown) [Compound I-40, [2-(hydroxymethyl)pyrrolidin-1-yl]-[2-(4-isopropylsulfonylphenyl)-5H-pyrrolo[2,3-b]pyrazin-7-yl]methanone]	500 to 5000 nM
CC(C)S(=O)(=O)c1ccc(-c2cnc3[nH]cc(C(=O)NC4(CO)CCCC4)c3n2)cc1 [Compound I-44, N-[1-(hydroxymethyl)cyclopentyl]-2-(4-isopropylsulfonylphenyl)-5H-pyrrolo[2,3-b]pyrazine-7-carboxamide]	100 to 500 nM
CC(C)S(=O)(=O)c1ccc(-c2cnc3[nH]cc(C(=O)Nc4ccccc4CCO)c3n2)cc1 [Compound I-50, N-[2-(2-hydroxyethyl)phenyl]-2-(4-isopropylsulfonylphenyl)-5H-pyrrolo[2,3-b]pyrazine-7-carboxamide]	100 to 500 nM
CC(C)S(=O)(=O)c1ccc(-c2cnc3[nH]cc(C(=O)N[C@@H](CCO)c4ccccc4)c3n2)cc1 [Compound I-51, N-[(1S)-3-hydroxy-1-phenyl-propyl]-2-(4-isopropylsulfonylphenyl)-5H-pyrrolo[2,3-b]pyrazine-7-carboxamide]	500 to 5000 nM
CC(C)S(=O)(=O)c1ccc(-c2cnc3[nH]cc(C(=O)NCc4ccccn4)c3n2)cc1 [Compound I-52, 2-(4-isopropylsulfonylphenyl)-N-(2-pyridylmethyl)-5H-pyrrolo[2,3-b]pyrazine-7-carboxamide]	100 to 500 nM
Cc1cc(NC(=O)c2c[nH]c3ncc(-c4ccc(S(=O)(=O)C(C)C)cc4)nc23)[nH]n1 [Compound I-55, 2-(4-isopropylsulfonylphenyl)-N-(3-methyl-1H-pyrazol-5-yl)-5H-pyrrolo[2,3-b]pyrazine-7-carboxamide]	< 100 nM
CC(C)S(=O)(=O)c1ccc(-c2cnc3[nH]cc(C(=O)N[C@@H](CO)c4ccccc4)c3n2)cc1 [Compound I-56, N-[(1R)-2-hydroxy-1-phenyl-ethyl]-2-(4-isopropylsulfonylphenyl)-5H-pyrrolo[2,3-b]pyrazine-7-carboxamide]	100 to 500 nM
CC(C)S(=O)(=O)c1ccc(-c2cnc3[nH]cc(C(=O)NCc4ccc(N)cc4)c3n2)cc1 [Compound I-57, N-[(4-aminophenyl)methyl]-2-(4-isopropylsulfonylphenyl)-5H-pyrrolo[2,3-b]pyrazine-7-carboxamide]	< 100 nM
COC[C@H](NC(=O)c1c[nH]c2ncc(-c3ccc(S(=O)(=O)C(C)C)cc3)nc12)c1ccccc1 [Compound I-58, 2-(4-isopropylsulfonylphenyl)-N-[(1R)-2-methoxy-1-phenyl-ethyl]-5H-pyrrolo[2,3-b]pyrazine-7-carboxamide]	500 to 5000 nM
CC(C)S(=O)(=O)c1ccc(-c2cnc3[nH]cc(C(=O)NCc4cccnc4)c3n2)cc1 [Compound I-59, 2-(4-isopropylsulfonylphenyl)-N-(3-pyridylmethyl)-5H-pyrrolo[2,3-b]pyrazine-7-carboxamide]	100 to 500 nM
CC(C)S(=O)(=O)c1ccc(-c2cnc3[nH]cc(C(=O)NCc4ccncc4)c3n2)cc1 [Compound I-60, 2-(4-isopropylsulfonylphenyl)-N-(4-pyridylmethyl)-5H-pyrrolo[2,3-b]pyrazine-7-carboxamide]	100 to 500 nM
CC(C)S(=O)(=O)c1ccc(-c2cnc3[nH]cc(C(=O)NCCc4ccccn4)c3n2)cc1 [Compound I-61, 2-(4-isopropylsulfonylphenyl)-N-[2-(2-pyridyl)ethyl]-5H-pyrrolo[2,3-b]pyrazine-7-carboxamide]	< 100 nM
CC(C)S(=O)(=O)c1ccc(-c2cnc3[nH]cc(C(=O)NC[C@@H](O)c4ccccc4)c3n2)cc1 [Compound I-62, N-[(2S)-2-hydroxy-2-phenyl-ethyl]-2-(4-isopropylsulfonylphenyl)-5H-pyrrolo[2,3-b]pyrazine-7-carboxamide]	< 100 nM
CC(C)S(=O)(=O)c1ccc(-c2cnc3[nH]cc(C(=O)NCC4CCCO4)c3n2)cc1 (stereo not shown) [Compound I-63, 2-(4-isopropylsulfonylphenyl)-N-(tetrahydrofuran-2-ylmethyl)-5H-pyrrolo[2,3-b]pyrazine-7-carboxamide]	< 100 nM
Cc1ccc(NC(=O)c2c[nH]c3ncc(-c4ccc(S(=O)(=O)C(C)C)cc4)nc23)cc1F [Compound I-64, N-(3-fluoro-4-methyl-phenyl)-2-(4-isopropylsulfonylphenyl)-5H-pyrrolo[2,3-b]pyrazine-7-carboxamide]	< 100 nM

Results, then the compound that gave them:

Ki	SMILES
< 100 nM	CC(C)S(=O)(=O)c1ccc(-c2cnc3[nH]cc(C(=O)Nc4cccc(C(N)=O)c4)c3n2)cc1 [Compound I-36, N-(3-carbamoylphenyl)-2-(4-isopropylsulfonylphenyl)-5H-pyrrolo[2,3-b]pyrazine-7-carboxamide]
< 100 nM	CC(C)S(=O)(=O)c1ccc(-c2cnc3[nH]cc(C(=O)NC[C@H](O)c4ccccc4)c3n2)cc1 [Compound I-37, N-[(2R)-2-hydroxy-2-phenyl-ethyl]-2-(4-isopropylsulfonylphenyl)-5H-pyrrolo[2,3-b]pyrazine-7-carboxamide]
< 100 nM	CC(C)S(=O)(=O)c1ccc(-c2cnc3[nH]cc(C(=O)Nc4ccccc4C#N)c3n2)cc1 [Compound I-41, N-(2-cyanophenyl)-2-(4-isopropylsulfonylphenyl)-5H-pyrrolo[2,3-b]pyrazine-7-carboxamide]
< 100 nM	CC(C)S(=O)(=O)c1ccc(-c2cnc3[nH]cc(C(=O)NC(CO)c4ccccc4)c3n2)cc1 (stereo not shown) [Compound I-42, N-(2-hydroxy-1-phenyl-ethyl)-2-(4-isopropylsulfonylphenyl)-5H-pyrrolo[2,3-b]pyrazine-7-carboxamide]
< 100 nM	CC(C)S(=O)(=O)c1ccc(-c2cnc3[nH]cc(C(=O)Nc4noc5ccccc45)c3n2)cc1 [Compound I-43, N-(1,2-benzoxazol-3-yl)-2-(4-isopropylsulfonylphenyl)-5H-pyrrolo[2,3-b]pyrazine-7-carboxamide]
< 100 nM	CC(C)S(=O)(=O)c1ccc(-c2cnc3[nH]cc(C(=O)N[C@H](C)c4ccccc4)c3n2)cc1 [Compound I-45, 2-(4-isopropylsulfonylphenyl)-N-[(1R)-1-phenylethyl]-5H-pyrrolo[2,3-b]pyrazine-7-carboxamide]
< 100 nM	CC(C)S(=O)(=O)c1ccc(-c2cnc3[nH]cc(C(=O)NCc4ccccc4Cl)c3n2)cc1 [Compound I-48, N-[(2-chlorophenyl)methyl]-2-(4-isopropylsulfonylphenyl)-5H-pyrrolo[2,3-b]pyrazine-7-carboxamide]
< 100 nM	CC(C)S(=O)(=O)c1ccc(-c2cnc3[nH]cc(C(=O)NCc4ccc(N(C)C)cc4)c3n2)cc1 [Compound I-49, N-[(4-dimethylaminophenyl)methyl]-2-(4-isopropylsulfonylphenyl)-5H-pyrrolo[2,3-b]pyrazine-7-carboxamide]
< 100 nM	CC(C)S(=O)(=O)c1ccc(-c2cnc3[nH]cc(C(=O)NC4CCc5ccccc54)c3n2)cc1 (stereo not shown) [Compound I-53, N-indan-1-yl-2-(4-isopropylsulfonylphenyl)-5H-pyrrolo[2,3-b]pyrazine-7-carboxamide]
< 100 nM	Cc1cccc(Cl)c1CNC(=O)c1c[nH]c2ncc(-c3ccc(S(=O)(=O)C(C)C)cc3)nc12 [Compound I-54, N-[(2-chloro-6-methyl-phenyl)methyl]-2-(4-isopropylsulfonylphenyl)-5H-pyrrolo[2,3-b]pyrazine-7-carboxamide]

same assay, conditions: Ki(app); 5 nM full-length ATR, 10 μM ATP, 800 μM target peptide, 25° C.; given as numeric lower bound without unit; read-out: ATR Inhibition Ki

Ki	SMILES
> 250 nM	CC(C)S(=O)(=O)c1ccc(-c2cnc3[nH]cc(C(=O)N4CCCCC4)c3n2)cc1 [Compound I-39, [2-(4-isopropylsulfonylphenyl)-5H-pyrrolo[2,3-b]pyrazin-7-yl]-(1-piperidyl)methanone]
> 250 nM	CC(C)S(=O)(=O)c1ccc(-c2cnc3[nH]cc(C(=O)NCc4cccc(Cl)c4)c3n2)cc1 [Compound I-46, N-[(3-chlorophenyl)methyl]-2-(4-isopropylsulfonylphenyl)-5H-pyrrolo[2,3-b]pyrazine-7-carboxamide]
> 250 nM	CC(C)S(=O)(=O)c1ccc(-c2cnc3[nH]cc(C(=O)Nc4ccc(C(N)=O)cc4)c3n2)cc1 [Compound I-47, N-(4-carbamoylphenyl)-2-(4-isopropylsulfonylphenyl)-5H-pyrrolo[2,3-b]pyrazine-7-carboxamide]

From patent publication US9096602B2, “Substituted pyrrolo[2,3-B]pyrazines as ATR kinase inhibitors” (Vertex Pharmaceuticals Incorporated, priority 2011, dated 2015)
